Four compounds from ChEMBL document CHEMBL1153202, “Optimization of piperidyl-ureas as inhibitors of soluble epoxide hydrolase” (Bioorg Med Chem Lett, 2010) can be followed below.

A short description of series [1]: Plasma concentration in Sprague-Dawley rat at 5 mg/kg, po after 4 hrs by LC-MS/MS analysis. It is filed as ADME, organism-based. Also noted: dose 5 mg/kg, route oral.
The nature of series [2]: Plasma concentration in Sprague-Dawley rat at 5 mg/kg, po after 1 hr by LC-MS/MS analysis. It is filed as ADME, organism-based. Also noted: dose 5 mg/kg, route oral.
Series [3] can be described thus: Plasma concentration in Sprague-Dawley rat at 5 mg/kg, po after 2 hrs by LC-MS/MS analysis. It is filed as ADME, organism-based. Further details: dose 5 mg/kg, route oral.
Series [4] in a line: Plasma concentration in Sprague-Dawley rat at 5 mg/kg, po after 6 hrs by LC-MS/MS analysis. It counts as ADME, organism-based. Also noted: dose 5 mg/kg, route oral.
A short description of series [5]: Solubility of the compound. It is filed as physicochemical.
The nature of series [6]: Plasma concentration in Sprague-Dawley rat at 30 mg/kg, po after 4 hrs by LC-MS/MS analysis. Further details: dose 30 mg/kg, route oral. It counts as ADME, organism-based.

Values after ≈ are worked out from the molar mass of the structure shown.

By solubility is commonly meant how much of the substance goes into solution per volume.

As for `O=C(O)c1ccc(OC2CCN(C(=O)NCc3ccc(Cl)cc3Cl)CC2)cc1`, the concentration at 4 h in series [1] amounted to 3800 nM. Besides, the concentration at 1 h in series [2] amounted to 1700 nM. Moreover, the concentration at 2 h in series [3] came to 2660 nM. In series [4], this compound yielded a concentration at 6 h of 5430 nM.
Consider `O=C(NCc1ccc(Cl)cc1Cl)N1CCC(Oc2ccccc2)CC1`, for which the solubility in series [5] is 3.4 µg/mL (≈ 8.96 µM). In addition, in series [1], the concentration at 4 h is 100 nM.
On to `O=C(Nc1ccc(OC(F)(F)F)cc1)N1CCC(n2cccc2)CC1`, for which the concentration at 4 h in series [6] stood at 2800 nM.
For the compound `O=C(NCc1ccc(Cl)cc1Cl)N1CCC(Oc2ncccn2)CC1`, in series [5], the solubility was found to be 174 µg/mL (≈ 456 µM). In series [1], the concentration at 4 h was 1300 nM.
